In US9486544B2, “Manganese chelates and their use as contrast agents in magnetic resonance imaging (MRI)” (GE Healthcare AS, priority 2009, dated 2016):
Like-named read-outs stand apart in the source and are kept apart here.

Tests used:
Type in all cases: physicochemical
[1] = Relaxivity analysis in water; settings: degassed Millipore water, 0.05 to 1 mM complex
Procedure: (§1) The relaxivity measurements were performed with a range of 0.05 to 1 mM complex solutions on a Bruker Minispec PC 120b-NA 770, at 20 MHz or a Bruker Minispec Mq 60m at 60 MHz and 37° C. The solutions were obtained by dissolving the appropriate amount of chelate in degassed Millipore water or human serum.

[2] = Kinetic stability: exchange reaction with Zn2+ in acetate buffer, monitored by relaxivity; settings: acetate buffer with Zn2+ challenge, acetate buffer 10 mM, 25° C., chelate approx. 0.5 mM, read-out: Dissociation Half life t1/2
Procedure: The kinetic stability of manganous chelates was characterized by the rates of exchange reaction with Zn^2+, in acetate buffer (10 mM) set to various pH. The increase of free manganous ions was monitored using a Bruker Minispec PC 120b-NA 770, at 20 MHz and 25° C. The total ionic strength was adjusted to 0.5M with KCl. The chelate concentration was approximately 0.5 mM for all measurements.
The change in concentration of chelated manganese, upon challenge with zinc ions, was monitored spectroscopically. When zinc displaces a manganous ion a net increase in relaxivity was observed as the free manganous ion has a relaxivity of ˜10 mM^−1s^−1, whereas the studied manganese chelates have a lower relaxivity.
The pseudo first-order rate constants (kobs) were calculated by fitting the relaxivity data to the following equation: […] in which At, A0, and Ae are the relaxivity values at time t, the start of the reaction, and at equilibrium, respectively. The dissociation half life was derived from kobs.

[3] = Relaxivity analysis in human serum; settings: 0.05 to 1 mM complex
Procedure: as §1

[4] = Water exchange measurements (variable-temperature 17O NMR); settings: TRIS 0.05 M pH 7.4, 6 to 15 mM complex
Procedure: Water Exchange Measurements
The water exchange measurements were performed with 6 to 15 mM complex solutions. The solutions were obtained by dissolving the appropriate amount of complex in 0.6 mL of buffer solution (TRIS, 0.05 M, pH 7.4 in degassed Millipore water at ca. 3 atom % ^17O-enrichment); Variable-temperature Fourier transform ^17O NMR spectra were recorded at a frequency of 40.7 MHz on a Varian Unity 300 MHz spectrometer. The temperatures were measured using methanol and ethylene glycol standards. The temperature dependence of the ^17O line broadening for each system was measured over a temperature range from 273.7 to 356.1 K. Each temperature was calibrated using a methanol or ethylene glycol standard.

Row | SMILES | Relaxivity Water @ 20 MHz, 37° C. [1] [mM⁻¹ s⁻¹] | half-life at 0.5 mM ([2]; pH 4.6, pH 4.6, [Zn] 10 mM) [min] | half-life at 0.5 mM ([2]; pH 5, pH 5.0, [Zn] 10 mM) [min] | half-life at 0.5 mM ([2]; pH 5.2, pH 5.2, [Zn] 10 mM) [min] | half-life at 0.5 mM ([2]; pH 5.2, pH 5.2, [Zn] 20 mM) [min] | half-life at 0.5 mM ([2]; pH 5.4, pH 5.4, [Zn] 10 mM) [min] | half-life at 0.5 mM ([2]; pH 5.6, pH 5.6, [Zn] 10 mM) [min] | half-life at 0.5 mM ([2]; pH 5.6, pH 5.6, [Zn] 20 mM) [min] | Relaxivity Human Serum @ 60 MHz, 37° C. [3] [mM⁻¹ s⁻¹] | Water residence time [4] [ns]
1 | O=C(O)CN1CCN2CC(=O)[O][Mn][O]C(=O)CN(CC1)Cc1cccc(n1)C2 [Compound disclosed in US5334371, reference compound] | 1.3 | – | – | – | – | – | – | – | – | –
2 | O=C1CN2CCNCCN(CC(=O)[O][Mn][O]1)Cc1cccc(n1)C2 [Compound disclosed in US5334371, reference compound] | – | 3 | 6 | 9 | 10 | 15 | 22 | 23 | – | –
3 | CN1CCN2CC(=O)[O][Mn][O]C(=O)CN(CC1)Cc1cccc(n1)C2 [Example 1, manganese(II) complex of 3,6,9,15-tetraaza-3,9-bis-(carboxymethyl)-6-methyl-bicyclo[9.3.1]pentadeca-1(14),11(15),12-triene] | 2.4 | 10 | 21 | 30 | 37 | 44 | 72 | 77 | 4.6 | 16
4 | CN1CCN2CC(=O)[O][Mn][O]C(=O)CN(CC1)Cc1cc(NC(=O)c3cc(C(=O)Nc4cc5nc(c4)CN4CCN(C)CCN(CC(=O)[O][Mn][O]C(=O)C4)C5)cc(C(=O)Nc4cc5nc(c4)CN4CCN(C)CCN(CC(=O)[O][Mn][O]C(=O)C4)C5)c3)cc(n1)C2 [Example 2, manganese(II) complex of N1,N3,N5-tris[3,6,9,15-tetraaza-3,9-bis-(carbonylmethyl)-6-methyl-bicyclo[9.3.1]pentadeca-13-trienyl]benzene-1,3,5-tricarboxamide] | 3.8 | – | – | – | – | – | – | – | 10.5 | 14
5 | CN1CCN2CC(=O)[O][Mn][O]C(=O)CN(CC1)Cc1cc(NC(=O)c3ccccc3)cc(n1)C2 [Example 6, manganese complex of N,13-Benzamide-3,6,9,15-tetraaza-3,9-bis-(carboxymethyl)-6-methyl-bicyclo[9.3.1]pentadeca-1(14),11(15),12-triene] | – | – | – | – | – | – | – | – | 8.8 | –
